The text below walks through data of patent publication US8106029B2, “Use of A2A adenosine receptor agonists” (Gilead Sciences, Inc., priority 2004, dated 2012).

Structures are written as SMILES. In brackets after ≈: the same amount, converted by molar mass. Like-named read-outs stand apart in the source and are kept apart here.

The test system of series [1] is A2A-adenosine receptors. The following applies: average of the 12 assays.
The nature of series [2]: Example 2: PD model of average coronary peak flow velocity (APV), intracoronary Doppler flow wire. Format: in vivo, human. How it is done:
(§1) The purpose of this study was to investigate the pharmacokinetics (PK) and pharmacodynamics (PD) of regadenoson in subjects undergoing clinically indicated cardiac catheterization.
(§2) Thirty-six male and female subjects undergoing clinically indicated coronary angiography were studied. […] ECG, average coronary peak flow velocity (APV), measured using intracoronary Doppler flow wire, blood pressure (BP), and heart rate (HR) were continuously monitored for up to 3 hours post-dose. Occurrence of adverse events (AEs) was monitored for approximately 3 hours post dosing and via telephone approximately 14 days later. A population approach was utilized in applying PK and PD models to the plasma concentration, APV, and HR data. The potential influence of various covariates on PK and PD model parameters was investigated.

Series [3] concerns human platelets. Put plainly: Platelet aggregation. Format: cell-based. To be noted: mean ± SE, read-out: Platelet Aggregation, potency.
A short description of a further series: Solubility in water. Format: physicochemical. How it is done:
Therefore, regadenoson can be dissolved and administered in water so long as the desired weight amount of regadenoson can be administered in an acceptable volume. For example, a preferred dose of about 400 micrograms can be administered in 8 mL of water.

The subject of series [4] is human platelets. Briefly: Cell calcium mobilization, human platelets. Format: cell-based. The following applies: Platelet, mean ± SE, read-out: Cell calcium Mobilization, potency. On the technique in general: Calcium assays in cells follow changes in intracellular calcium, usually with a dye or a luminescent sensor.
In series [5] the target is T1, A2A-adenosine receptors (Rattus norvegicus, UniProt P30543).
T1 construct: rat brain striatal membranes; from tissue; host or cells: rat brain striatum membranes
T1 sequence (P30543 whole entry): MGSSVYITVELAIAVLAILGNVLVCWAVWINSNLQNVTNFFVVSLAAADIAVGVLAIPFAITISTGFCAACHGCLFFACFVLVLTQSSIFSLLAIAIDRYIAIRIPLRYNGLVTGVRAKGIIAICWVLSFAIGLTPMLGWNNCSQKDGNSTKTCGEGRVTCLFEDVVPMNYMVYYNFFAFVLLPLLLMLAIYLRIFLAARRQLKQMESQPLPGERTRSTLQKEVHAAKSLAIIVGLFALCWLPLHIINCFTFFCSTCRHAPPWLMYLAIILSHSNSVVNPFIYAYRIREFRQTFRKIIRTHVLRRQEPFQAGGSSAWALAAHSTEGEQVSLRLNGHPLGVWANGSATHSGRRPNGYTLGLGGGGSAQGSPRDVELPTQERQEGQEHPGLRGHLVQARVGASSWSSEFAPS
Briefly: Membrane binding, displacement of [3H]-CG-S21680, rat brain striatal membranes. To be noted: Rat striatum, mean ± SE, read-out: Membrane Binding, affinity [Ki].

Series [6] can be described thus: Example 1: PD model (Michaelis-Menten) of heart rate time-course in healthy male subjects. Format: in vivo, human. The procedure:
(§3) The purpose of this study was to investigate the pharmacokinetics (PK), pharmacodynamics (PD), and the maximum tolerated dose of regadenoson in healthy human subjects.
(§4) Thirty-six healthy, male subjects were included in the study. […] ECG, blood pressure (BP), and heart rate (HR) were recorded for up to 24 hours post-dose. Adverse events (AE) were monitored for 24 hours post dose and via telephone 7 days later. A population approach was utilized in applying a three-compartmental PK model to the plasma concentration-time and a Michaelis-Menten model to the time-course of heart rate. The potential influence of various covariates on PK and PD model parameters was investigated.

Series [7] in a line: Example 1: population PK after single IV bolus in healthy male subjects. Format: in vivo. To be noted: human. How it is done: as §3, §4
The nature of series [8]: Example 2: population PK in subjects undergoing cardiac catheterization. Format: in vivo. To be noted: both sexes, human, plasma. How it is done: as §1, §2
A short description of series [9]: Example 1: tolerability / maximum tolerated dose in healthy male subjects. The following applies: for MTD at 24 h: male, human, in vivo, intravenous. Format: in vivo, human. The procedure:
as §3, §4

The target in series [10] is T1, A2A-adenosine receptors. Briefly: Membrane binding, displacement of [3H]-ZM241385, rat brain striatal membranes. The following applies: Rat striatum, mean ± SE, read-out: Membrane Binding, affinity [Ki]. Background: Loss of bound radioactivity is the signal in a displacement assay; it reports binding, not function.
A short description of series [11]: Example 2: PD model (Michaelis-Menten) of heart rate. The following applies: catheterization subjects. Format: in vivo, human. The procedure:
as §1, §2

For another series, the system named is human neutrophils. Briefly: Superoxide anion production, human neutrophils. Format: cell-based. To be noted: Neutrophil, mean ± SE, read-out: Superoxide anion Production, potency.

As to `CCNC(=O)[C@H]1O[C@@H](n2cnc3c(N)nc(NCCc4ccc(CCC(=O)O)cc4)nc32)[C@H](O)[C@@H]1O` [CGS 21680], the “values of EC50 lower than for regadenoson, on average” value in the series on A2A-adenosine receptors [1] was determined as 13 fold.

On to `CNC(=O)c1cnn(-c2nc(N)c3ncn([C@@H]4O[C@H](CO)[C@@H](O)[C@H]4O)c3n2)c1` [regadenoson, (1-{9-[(4S,2R,3R,5R)-3,4-dihydroxy-5-(hydroxymethyl)oxolan-2-yl]-6-aminopurin-2-yl}pyrazol-4-yl)-N-methylcarboxamide], for which the “distribution rate constant from the plasma to the effect site” value in [2] (APV PD model) stood at 4 min⁻¹. Besides, the EC50 is 0.0299 µg/mL (≈ 0.0766 µM) in series [2] (Homo sapiens, catheterization subjects, read-out: potency (concentration that causes half maximal effect) on APV); 0.0124 µg/mL (≈ 0.0318 µM) in series [6] (Homo sapiens, read-out: concentration causing half-maximal increase in HR (potency)); 0.0275 µg/mL (≈ 0.0704 µM) in [11] (Homo sapiens, read-out: potency on HR). Moreover, in series [2] (model estimate, effect compartment), the “maximal increase in APV” value was 105 cm/s. Moreover, the IC50 in the series with human platelets [3] was 437 ± 44 nM; in the series on human platelets [4], 108 ± 8 nM; in the series with human neutrophils, 328 ± 32 nM. Further, the solubility in “Solubility in water” was ~50 µg/mL (≈ 128 µM). In addition, the Ki is 43 ± 3 nM on A2A-adenosine receptors [5] and 318 ± 5 nM on A2A-adenosine receptors [10]. Also, the “maximal increase in HR” value in series [6] (healthy male subjects, model estimate) is reported as 76 bpm. For the same compound, the Vd amounted to 83.3 L in series [7] (plasma, healthy male subjects, IV bolus, read-out: volume of distribution) and 68.1 L in series [8] (IV bolus, read-out: volume of distribution). The clearance in series [7] (plasma, healthy male subjects, single IV bolus 0.1 to 30 μg/kg, three-compartmental model, read-out: population value of clearance (CL) (converted)) was 677 mL/min; in [8] (single IV bolus 10 to 500 μg, three-compartment model) it was 498 mL/min. Besides, in series [7] (male, in vivo, iv), the “renal clearance as share of the total clearance” value is recorded as 57%. Also, the “adverse events, severity” value in series [9] (healthy male subjects, IV bolus 0.1 to 30 μg/kg) is “mild to moderate”. Moreover, the MTD at 24 h in [9] (standing, dose-limiting syncope or near syncope, read-out: maximum tolerated dose, standing position) is 0.01 mg/kg; in [9] (supine, read-out: maximum tolerated dose, supine position), 0.02 mg/kg. Further, the “dose generally well tolerated, standing patients” value in [9] (standing) is “up to 10 μg/kg”. The “dose generally well tolerated, supine patients” value in [9] (supine) is “up to 20 μg/kg”. Besides, the “maximum increase in the HR” value in series [11] (model estimate) is recorded as 41 bpm.

Broadly, the solubility is the dissolved amount per volume that the medium holds. A higher solubility goes with much dissolved substance. The Ki is a dissociation constant, usually derived from enzyme kinetics or from competition with a known ligand. One may read the clearance as the volume of plasma or blood freed of the substance per unit of time.
